Laboratory results published in the NIST ThermoML archive (doi:10.1016/j.jct.2016.12.019).
Numbers after ± are expanded uncertainties.

How the values were obtained:
[1] = 100 kPa, Liquid; for viscosity: Capillary tube (Ostwald / Ubbelohde) method; for speed of sound: Frequency=2 MHz, Linear variable-path acoustic interferometer; for mass density: Vibrating tube method
[2] = xn = mol fraction of the nth substance listed; conditions: 100 kPa, Liquid, x2 = 0; for viscosity: Capillary tube (Ostwald / Ubbelohde) method; for speed of sound: Frequency=2 MHz, Linear variable-path acoustic interferometer; for mass density: Vibrating tube method

## CCCCCCCCCO [nonan-1-ol]
[1]; 303.15 K
  viscosity: 7.809 ± 0.21 mPa·s
  speed of sound: 1357 ± 8.3 m/s
  mass density: 821.36 ± 1.1 kg/m3
[1]; 308.15 K
  viscosity: 6.499 ± 0.18 mPa·s
  speed of sound: 1334 ± 8.2 m/s
  mass density: 817.54 ± 1.1 kg/m3
[1]; 313.15 K
  viscosity: 5.665 ± 0.15 mPa·s
  speed of sound: 1313 ± 8 m/s
  mass density: 814.05 ± 1.1 kg/m3
[1]; 318.15 K
  viscosity: 4.676 ± 0.13 mPa·s
  speed of sound: 1293.5 ± 7.9 m/s
  mass density: 808.97 ± 1.1 kg/m3

## CCN(CC)c1ccccc1 [N,N-diethylaniline]
[1]; 303.15 K
  viscosity: 1.711 ± 0.046 mPa·s
  speed of sound: 1432 ± 8.7 m/s
  mass density: 925.8 ± 1.1 kg/m3
[1]; 308.15 K
  viscosity: 1.537 ± 0.041 mPa·s
  speed of sound: 1416 ± 8.6 m/s
  mass density: 921.8 ± 1.1 kg/m3
[1]; 313.15 K
  viscosity: 1.4 ± 0.038 mPa·s
  speed of sound: 1398 ± 8.5 m/s
  mass density: 917.9 ± 1.1 kg/m3
[1]; 318.15 K
  viscosity: 1.276 ± 0.034 mPa·s
  speed of sound: 1378 ± 8.4 m/s
  mass density: 913.8 ± 1.1 kg/m3

## CCCCCCCCCCO [decan-1-ol] + CCN(CC)c1ccccc1
[2]; 303.15 K
  viscosity: 9.751 ± 0.27 mPa·s
  speed of sound: 1363.5 ± 8.3 m/s
  mass density: 822.89 ± 1.1 kg/m3
[2]; 308.15 K
  viscosity: 8.138 ± 0.22 mPa·s
  speed of sound: 1344.2 ± 8.2 m/s
  mass density: 819.54 ± 1.1 kg/m3
[2]; 313.15 K
  viscosity: 6.846 ± 0.19 mPa·s
  speed of sound: 1328.5 ± 8.1 m/s
  mass density: 815.95 ± 1.1 kg/m3
[2]; 318.15 K
  viscosity: 5.879 ± 0.16 mPa·s
  speed of sound: 1320.5 ± 8 m/s
  mass density: 811.35 ± 1.1 kg/m3

## CCCCCCCCO [octan-1-ol] + CCN(CC)c1ccccc1
[2]; 303.15 K
  viscosity: 6.405 ± 0.17 mPa·s
  speed of sound: 1333.5 ± 8.2 m/s
  mass density: 818.25 ± 1.1 kg/m3
[2]; 308.15 K
  viscosity: 5.422 ± 0.15 mPa·s
  speed of sound: 1312.5 ± 8 m/s
  mass density: 814.72 ± 1.1 kg/m3
[2]; 313.15 K
  viscosity: 4.625 ± 0.13 mPa·s
  speed of sound: 1295.4 ± 7.9 m/s
  mass density: 810.07 ± 1.1 kg/m3
[2]; 318.15 K
  viscosity: 4.051 ± 0.11 mPa·s
  speed of sound: 1282.5 ± 7.8 m/s
  mass density: 805.52 ± 1.1 kg/m3

## CCCCCCCCCO [nonan-1-ol] + CCN(CC)c1ccccc1
[2]; 303.15 K
  viscosity: 7.809 ± 0.21 mPa·s
  speed of sound: 1357 ± 8.3 m/s
  mass density: 821.36 ± 1.1 kg/m3
[2]; 308.15 K
  viscosity: 6.499 ± 0.18 mPa·s
  speed of sound: 1334 ± 8.2 m/s
  mass density: 817.54 ± 1.1 kg/m3
[2]; 313.15 K
  viscosity: 5.665 ± 0.15 mPa·s
  speed of sound: 1313 ± 8 m/s
  mass density: 814.05 ± 1.1 kg/m3
[2]; 318.15 K
  viscosity: 4.676 ± 0.13 mPa·s
  speed of sound: 1293.5 ± 7.9 m/s
  mass density: 808.97 ± 1.1 kg/m3
